The values that follow come from ChEMBL document CHEMBL4507294, “Data for DCP probe MSD-CYP11B2” (2021).

Experiment [1] deals with T1, Alpha-2B adrenergic receptor (Homo sapiens, UniProt P18089).
T1 sequence (P18089 whole entry): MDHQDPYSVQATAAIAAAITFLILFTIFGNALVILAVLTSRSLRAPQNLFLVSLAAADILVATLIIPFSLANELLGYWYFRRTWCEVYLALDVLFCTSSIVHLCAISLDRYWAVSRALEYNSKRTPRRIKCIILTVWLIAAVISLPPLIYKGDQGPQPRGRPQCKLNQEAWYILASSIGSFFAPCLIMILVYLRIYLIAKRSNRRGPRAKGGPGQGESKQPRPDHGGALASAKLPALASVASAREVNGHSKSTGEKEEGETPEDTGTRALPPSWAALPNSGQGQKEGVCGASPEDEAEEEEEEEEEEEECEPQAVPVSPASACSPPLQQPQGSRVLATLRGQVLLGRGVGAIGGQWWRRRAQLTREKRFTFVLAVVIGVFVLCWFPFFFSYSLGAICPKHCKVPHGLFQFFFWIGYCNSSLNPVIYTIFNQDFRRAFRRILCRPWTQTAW
The experiment can be described thus: GPCRScan assay: inhibition of Alpha2B. Further details: radioligand conc. used [nm] 1.5 – 2.0, parental cells HEKT.

Experiment [2] deals with Beta-1 adrenergic receptor (Homo sapiens, UniProt P08588). The experiment can be described thus: GPCRScan assay: inhibition of Beta1. Further details: radioligand conc. used [nm] 0.1 – 0.2, parental cells CHO Flp-In.
Chain of Beta-1 adrenergic receptor (P08588 whole entry): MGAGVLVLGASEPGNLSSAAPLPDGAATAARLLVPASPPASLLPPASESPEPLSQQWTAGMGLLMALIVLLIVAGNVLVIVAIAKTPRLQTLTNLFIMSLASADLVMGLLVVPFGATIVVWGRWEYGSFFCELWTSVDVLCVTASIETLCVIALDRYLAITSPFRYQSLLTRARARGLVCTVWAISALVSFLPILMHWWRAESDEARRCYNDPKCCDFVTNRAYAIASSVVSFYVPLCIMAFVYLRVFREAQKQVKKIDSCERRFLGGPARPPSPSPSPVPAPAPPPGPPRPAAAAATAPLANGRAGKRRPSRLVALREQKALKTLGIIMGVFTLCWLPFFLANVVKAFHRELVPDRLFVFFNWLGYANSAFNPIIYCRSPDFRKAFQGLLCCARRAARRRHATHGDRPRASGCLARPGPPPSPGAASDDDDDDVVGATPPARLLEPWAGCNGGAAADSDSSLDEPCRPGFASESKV
In experiment [3] the target is Glutamate receptor ionotropic, kainate (Rattus norvegicus) (UniProt P22756+Q01812+P42260+P42264+Q63273). As to the kind of experiment: Inhibition of Glutamate, Kainate at 10 µM in the Eurofins-Panlabs radioligand binding assay (Eurofins_assay_232700). As to conditions: Compound concentration 10.0 uM; call rule not given here.
The species named for experiment [4] is Rattus norvegicus. As to the kind of experiment: Inhibition of Glutamate, NMDA, Phencyclidine at 10 µM in the Eurofins-Panlabs radioligand binding assay (Eurofins_assay_233000). It counts as protein-complex assay. The conditions noted are these: Compound concentration 10.0 uM.
Experiment [5] addresses Neuropeptide Y receptor type 1 (Homo sapiens) (UniProt P25929). As to the kind of experiment: Inhibition of Neuropeptide Y Y1 at 10 µM in the Eurofins-Panlabs radioligand binding assay (Eurofins_assay_257010). The conditions noted are these: Compound concentration 10.0 uM.
The species named for another experiment is Homo sapiens. The experiment can be described thus: Inhibition of Nicotinic Acetylcholine at compound concentration of 10.0 uM in the Eurofins-Panlabs radioligand binding assay (Eurofins_assay_258590). It counts as protein-complex assay. As to conditions: Compound concentration 10.0 uM.
In experiment [6] the target is Acetylcholine receptor subunit alpha (Homo sapiens) (UniProt P02708). As to the kind of experiment: Inhibition of Nicotinic Acetylcholine D1, Bungarotoxin at 10 µM in the Eurofins-Panlabs radioligand binding assay (Eurofins_assay_258700). As to conditions: Compound concentration 10.0 uM.
Chain of Acetylcholine receptor subunit alpha (Homo sapiens) (P02708 whole entry): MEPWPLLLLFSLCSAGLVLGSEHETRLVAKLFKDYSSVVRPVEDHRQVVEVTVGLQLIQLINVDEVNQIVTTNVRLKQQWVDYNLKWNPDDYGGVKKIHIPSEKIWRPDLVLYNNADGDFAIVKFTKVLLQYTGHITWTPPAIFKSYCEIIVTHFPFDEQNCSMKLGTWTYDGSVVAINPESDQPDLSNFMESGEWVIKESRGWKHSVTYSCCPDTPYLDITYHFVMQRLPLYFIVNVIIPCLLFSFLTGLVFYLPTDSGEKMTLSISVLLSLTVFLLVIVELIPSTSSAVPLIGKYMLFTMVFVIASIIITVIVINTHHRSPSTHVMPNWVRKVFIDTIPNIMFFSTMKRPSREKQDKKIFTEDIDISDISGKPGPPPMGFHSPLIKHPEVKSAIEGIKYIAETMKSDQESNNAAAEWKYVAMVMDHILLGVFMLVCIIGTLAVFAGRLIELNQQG
Experiment [7] concerns the target Cholecystokinin receptor type A (Homo sapiens) (UniProt P32238). The experiment can be described thus: Inhibition of Cholecystokinin CCK1 (CCKA) at 10 µM in the Eurofins-Panlabs radioligand binding assay (Eurofins_assay_218020). As to conditions: Compound concentration 10.0 uM.
Experiment [8] deals with T2, 5-hydroxytryptamine receptor 3A (Homo sapiens) (UniProt P46098).
T2 sequence (whole entry): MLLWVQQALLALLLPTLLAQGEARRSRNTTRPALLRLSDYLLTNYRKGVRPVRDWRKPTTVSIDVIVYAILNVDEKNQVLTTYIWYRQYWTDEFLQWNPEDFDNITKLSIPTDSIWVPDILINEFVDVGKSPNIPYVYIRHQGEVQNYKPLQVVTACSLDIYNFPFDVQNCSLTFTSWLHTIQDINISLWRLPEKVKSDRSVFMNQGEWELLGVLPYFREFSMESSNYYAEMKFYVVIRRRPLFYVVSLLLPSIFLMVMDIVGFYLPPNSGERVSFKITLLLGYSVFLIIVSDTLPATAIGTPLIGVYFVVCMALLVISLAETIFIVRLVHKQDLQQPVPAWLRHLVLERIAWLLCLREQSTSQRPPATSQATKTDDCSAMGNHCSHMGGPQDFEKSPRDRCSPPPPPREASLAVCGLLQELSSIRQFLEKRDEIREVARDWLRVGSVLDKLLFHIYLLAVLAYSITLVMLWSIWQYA
The experiment can be described thus: Inhibition of Serotonin (5-Hydroxytryptamine) 5-HT3 at 10 µM in the Eurofins-Panlabs radioligand binding assay (Eurofins_assay_271910). Further details: ligand concentration 0.69 nM. The conditions noted are these: Compound concentration 10.0 uM.

The species entered for experiment [9] is Rattus norvegicus. As to the kind of experiment: GABAA, Ro-15-1788, Hippocampus Eurofins-Panlabs radioligand binding assay. Further details: ligand concentration 1 nM. As to conditions: Compound concentration 10.0 uM.
For experiment [10], the species on record is Rattus norvegicus. As to the kind of experiment: Glutamate, NMDA, Polyamine Eurofins-Panlabs radioligand binding assay. It counts as protein-complex assay. Set-up: ligand concentration 2 nM. The conditions noted are these: Compound concentration 10.0 uM.
Experiment [11] concerns the target Muscarinic acetylcholine receptor M4 (Homo sapiens) (UniProt P08173). As to conditions: Compound concentration 10.0 uM.
In experiment [12] the target is Alpha-1D adrenergic receptor (Homo sapiens) (UniProt P25100). The conditions noted are these: Compound concentration 10.0 uM.
Chain of Alpha-1D adrenergic receptor (Homo sapiens) (P25100 whole entry): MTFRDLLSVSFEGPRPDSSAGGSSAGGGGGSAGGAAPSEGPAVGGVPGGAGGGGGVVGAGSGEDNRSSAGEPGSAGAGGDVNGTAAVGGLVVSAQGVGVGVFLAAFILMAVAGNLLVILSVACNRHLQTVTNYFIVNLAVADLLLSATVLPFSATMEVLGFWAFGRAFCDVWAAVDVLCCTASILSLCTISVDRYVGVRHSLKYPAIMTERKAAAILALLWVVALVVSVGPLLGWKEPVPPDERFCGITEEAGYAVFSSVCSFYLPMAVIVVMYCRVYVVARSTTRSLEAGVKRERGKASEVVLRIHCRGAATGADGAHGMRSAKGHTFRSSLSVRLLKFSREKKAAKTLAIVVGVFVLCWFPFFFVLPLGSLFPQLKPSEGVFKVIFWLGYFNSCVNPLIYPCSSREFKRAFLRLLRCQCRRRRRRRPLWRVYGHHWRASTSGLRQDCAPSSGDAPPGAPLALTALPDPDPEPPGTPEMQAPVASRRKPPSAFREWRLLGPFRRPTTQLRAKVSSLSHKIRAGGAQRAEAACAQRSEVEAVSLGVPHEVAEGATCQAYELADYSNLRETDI
Experiment [13] has as its target Adenosine receptor A1 (Homo sapiens) (UniProt P30542). The conditions noted are these: Compound concentration 10.0 uM.
Experiment [14] deals with Cannabinoid receptor 1 (Homo sapiens) (UniProt P21554). As to conditions: Compound concentration 10.0 uM.
Chain of Cannabinoid receptor 1 (Homo sapiens) (P21554 whole entry): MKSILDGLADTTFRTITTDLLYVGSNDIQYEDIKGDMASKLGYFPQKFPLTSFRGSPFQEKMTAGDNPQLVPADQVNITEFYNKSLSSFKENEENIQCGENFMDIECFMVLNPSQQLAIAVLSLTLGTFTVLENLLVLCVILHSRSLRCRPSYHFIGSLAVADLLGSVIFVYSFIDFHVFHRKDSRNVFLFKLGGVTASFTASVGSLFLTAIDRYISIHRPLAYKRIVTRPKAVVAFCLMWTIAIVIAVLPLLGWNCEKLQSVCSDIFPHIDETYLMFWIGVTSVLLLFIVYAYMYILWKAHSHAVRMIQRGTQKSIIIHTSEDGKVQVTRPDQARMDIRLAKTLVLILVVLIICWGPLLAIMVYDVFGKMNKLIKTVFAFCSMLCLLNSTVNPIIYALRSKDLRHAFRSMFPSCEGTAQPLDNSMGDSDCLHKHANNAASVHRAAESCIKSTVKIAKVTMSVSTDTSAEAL
Experiment [15] has as its target D(2) dopamine receptor (Homo sapiens) (UniProt P14416). The conditions noted are these: Compound concentration 10.0 uM.
The target in experiment [16] is Glutamate NMDA receptor (Rattus norvegicus) (UniProt P35439+Q00959+Q00960+Q00961+Q62645+Q8VHN2+Q9R1M7). The conditions noted are these: Compound concentration 10.0 uM.
Experiment [17] has as its target T3, Muscarinic acetylcholine receptor M1 (Homo sapiens) (UniProt P11229).
T3 sequence (whole entry): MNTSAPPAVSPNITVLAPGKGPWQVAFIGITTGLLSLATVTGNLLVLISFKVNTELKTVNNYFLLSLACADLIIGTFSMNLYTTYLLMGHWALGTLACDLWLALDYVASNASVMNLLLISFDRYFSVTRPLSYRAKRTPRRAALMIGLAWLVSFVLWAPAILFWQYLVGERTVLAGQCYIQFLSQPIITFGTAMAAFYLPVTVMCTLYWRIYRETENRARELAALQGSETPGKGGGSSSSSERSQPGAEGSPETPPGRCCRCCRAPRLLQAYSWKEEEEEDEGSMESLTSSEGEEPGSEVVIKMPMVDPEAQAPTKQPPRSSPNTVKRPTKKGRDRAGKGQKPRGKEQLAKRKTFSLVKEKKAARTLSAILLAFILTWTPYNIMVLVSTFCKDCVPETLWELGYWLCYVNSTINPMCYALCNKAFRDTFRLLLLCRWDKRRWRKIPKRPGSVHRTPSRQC
As to conditions: Compound concentration 10.0 uM.

For experiment [18], the target named is Mu-type opioid receptor (Homo sapiens) (UniProt P35372). The conditions noted are these: Compound concentration 10.0 uM.
Chain of Mu-type opioid receptor (Homo sapiens) (P35372 whole entry): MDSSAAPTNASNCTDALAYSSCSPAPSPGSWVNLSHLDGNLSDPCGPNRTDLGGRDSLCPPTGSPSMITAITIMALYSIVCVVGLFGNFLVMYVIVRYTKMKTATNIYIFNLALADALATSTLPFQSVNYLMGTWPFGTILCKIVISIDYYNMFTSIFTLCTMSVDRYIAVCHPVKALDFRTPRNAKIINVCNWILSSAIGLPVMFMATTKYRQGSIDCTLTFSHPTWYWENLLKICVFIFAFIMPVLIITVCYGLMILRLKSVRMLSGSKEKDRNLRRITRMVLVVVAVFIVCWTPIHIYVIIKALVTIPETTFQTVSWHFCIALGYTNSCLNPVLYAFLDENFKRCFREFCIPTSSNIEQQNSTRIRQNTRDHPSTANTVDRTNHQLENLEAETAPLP
The target of experiment [19] is GABA-A receptor; anion channel (Rattus norvegicus) (UniProt O09028+P15431+P18506+P18508+P19969+P20236+P23574+P23576+P28471+P28473+P30191+P62813+P63079+P63138+Q91ZM7+Q9ES14). The conditions noted are these: Compound concentration 10.0 uM.
In experiment [20] the target is Glutamate receptor 2 (Homo sapiens) (UniProt P42262). As to conditions: Rattus norvegicus; Compound concentration 10.0 uM.
The target in experiment [21] is Gamma-aminobutyric acid type B receptor subunit 1 (Homo sapiens) (UniProt Q9UBS5). The conditions noted are these: Rattus norvegicus; Compound concentration 10.0 uM.
The target of experiment [22] is Cytochrome P450 11B2, mitochondrial (Homo sapiens, UniProt P19099). The experiment can be described thus: Assay using V79 cell lines (CYP11B2). It counts as cell-based.
Chain of Cytochrome P450 11B2, mitochondrial (P19099 whole entry): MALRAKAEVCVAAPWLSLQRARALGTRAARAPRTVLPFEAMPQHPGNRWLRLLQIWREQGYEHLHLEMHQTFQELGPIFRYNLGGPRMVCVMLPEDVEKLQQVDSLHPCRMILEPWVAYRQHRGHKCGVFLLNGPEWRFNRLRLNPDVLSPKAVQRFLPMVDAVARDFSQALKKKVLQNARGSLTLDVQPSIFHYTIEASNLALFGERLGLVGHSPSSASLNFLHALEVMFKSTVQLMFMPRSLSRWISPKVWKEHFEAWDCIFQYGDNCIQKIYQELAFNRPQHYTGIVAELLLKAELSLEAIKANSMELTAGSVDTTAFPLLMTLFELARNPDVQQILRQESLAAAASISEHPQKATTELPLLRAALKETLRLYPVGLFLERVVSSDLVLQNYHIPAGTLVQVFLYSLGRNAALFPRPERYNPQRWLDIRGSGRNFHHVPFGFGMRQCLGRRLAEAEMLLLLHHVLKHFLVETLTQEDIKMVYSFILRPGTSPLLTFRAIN

Chain of D(2) dopamine receptor (Homo sapiens) (P14416 whole entry): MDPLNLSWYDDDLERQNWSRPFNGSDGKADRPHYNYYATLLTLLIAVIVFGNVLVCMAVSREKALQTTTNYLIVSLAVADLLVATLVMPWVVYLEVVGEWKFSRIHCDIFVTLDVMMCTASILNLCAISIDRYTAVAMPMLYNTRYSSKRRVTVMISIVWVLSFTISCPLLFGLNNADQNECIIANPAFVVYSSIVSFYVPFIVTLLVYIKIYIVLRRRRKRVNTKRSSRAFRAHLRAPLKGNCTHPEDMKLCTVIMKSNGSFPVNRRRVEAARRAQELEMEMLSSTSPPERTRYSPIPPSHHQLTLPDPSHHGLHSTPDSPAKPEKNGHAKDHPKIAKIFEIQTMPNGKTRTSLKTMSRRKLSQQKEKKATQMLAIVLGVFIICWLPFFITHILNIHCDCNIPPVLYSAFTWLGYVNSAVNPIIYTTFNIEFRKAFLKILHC
Chain of Adenosine receptor A1 (Homo sapiens) (P30542 whole entry): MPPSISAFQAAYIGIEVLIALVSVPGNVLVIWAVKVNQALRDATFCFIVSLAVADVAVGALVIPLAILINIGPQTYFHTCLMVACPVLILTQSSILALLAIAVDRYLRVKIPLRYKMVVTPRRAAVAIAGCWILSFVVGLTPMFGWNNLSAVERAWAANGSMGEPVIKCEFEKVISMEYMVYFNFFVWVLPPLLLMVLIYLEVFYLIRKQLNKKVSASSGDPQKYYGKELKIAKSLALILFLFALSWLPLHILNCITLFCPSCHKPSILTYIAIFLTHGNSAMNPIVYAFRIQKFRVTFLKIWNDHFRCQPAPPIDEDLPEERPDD
Chain of Muscarinic acetylcholine receptor M4 (Homo sapiens) (P08173 whole entry): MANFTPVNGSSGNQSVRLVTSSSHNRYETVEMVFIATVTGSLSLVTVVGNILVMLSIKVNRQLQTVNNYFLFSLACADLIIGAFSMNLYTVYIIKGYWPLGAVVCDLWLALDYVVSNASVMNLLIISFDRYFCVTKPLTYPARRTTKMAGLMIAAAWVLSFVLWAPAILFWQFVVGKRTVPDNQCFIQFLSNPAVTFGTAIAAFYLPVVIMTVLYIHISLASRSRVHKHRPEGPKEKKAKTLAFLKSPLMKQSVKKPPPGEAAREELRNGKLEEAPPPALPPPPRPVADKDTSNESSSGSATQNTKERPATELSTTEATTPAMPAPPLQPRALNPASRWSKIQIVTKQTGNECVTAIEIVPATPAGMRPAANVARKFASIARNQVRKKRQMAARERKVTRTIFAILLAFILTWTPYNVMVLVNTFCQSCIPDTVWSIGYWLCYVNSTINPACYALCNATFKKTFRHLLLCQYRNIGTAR
Chain of Cholecystokinin receptor type A (Homo sapiens) (P32238 whole entry): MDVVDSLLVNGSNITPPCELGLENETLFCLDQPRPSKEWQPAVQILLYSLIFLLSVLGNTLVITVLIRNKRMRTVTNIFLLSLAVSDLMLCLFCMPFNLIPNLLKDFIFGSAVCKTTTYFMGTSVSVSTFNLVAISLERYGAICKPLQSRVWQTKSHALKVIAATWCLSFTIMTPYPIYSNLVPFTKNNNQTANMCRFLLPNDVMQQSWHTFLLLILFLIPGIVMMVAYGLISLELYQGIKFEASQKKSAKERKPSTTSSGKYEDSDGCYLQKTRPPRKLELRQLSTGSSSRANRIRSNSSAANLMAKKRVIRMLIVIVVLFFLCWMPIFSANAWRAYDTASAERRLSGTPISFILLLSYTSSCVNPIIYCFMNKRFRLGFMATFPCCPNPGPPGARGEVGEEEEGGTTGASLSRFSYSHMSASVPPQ
Chain of Neuropeptide Y receptor type 1 (Homo sapiens) (P25929 whole entry): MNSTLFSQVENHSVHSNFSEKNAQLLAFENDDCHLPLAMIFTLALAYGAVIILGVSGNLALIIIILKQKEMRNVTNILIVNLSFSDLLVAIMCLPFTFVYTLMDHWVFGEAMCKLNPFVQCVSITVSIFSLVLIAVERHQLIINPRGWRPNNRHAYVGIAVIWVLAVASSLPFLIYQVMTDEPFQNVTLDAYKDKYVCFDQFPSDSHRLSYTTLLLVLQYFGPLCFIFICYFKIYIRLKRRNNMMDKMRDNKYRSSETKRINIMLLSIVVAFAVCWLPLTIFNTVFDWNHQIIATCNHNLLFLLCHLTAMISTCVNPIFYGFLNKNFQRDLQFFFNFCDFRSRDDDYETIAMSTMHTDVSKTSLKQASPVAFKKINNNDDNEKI

The term Ki denotes a dissociation constant, usually derived from enzyme kinetics or from competition with a known ligand. What is called inhibition is the change of the read-out against control, counted positive when it falls. Regarding `CC(C)(O)c1cncc(-c2nc3ccc(F)cc3n2C2CC2)c1` [MSD-CYP11B2], the figures for the Ki in experiment [1] and in [2] were 1440 nM and 2370 nM, respectively. For the same molecule, the inhibition in experiment [3] is -5%; in the experiment filed under Rattus norvegicus [4], 3%; in experiment [5], 11%; in the experiment listed under Homo sapiens, -3%; in experiment [6] it was 0%; in [7], 4%. For the same molecule, the inhibition in experiment [8] was -4%; in the experiment listed under Rattus norvegicus [9], 12%; in the experiment filed under Rattus norvegicus [10], -3%; in experiment [11] it was -0.57%; in [12], 2.58%; in experiment [13], 20%. For the same molecule, the inhibition in experiment [14] was 7%; in [15], -4%; in experiment [16] it was -1%; in experiment [17], -4%; in experiment [18], 7%; in experiment [19], 16%. For the same molecule, the inhibition was 22% in experiment [20] and 6% in experiment [21].
One may read the IC50 as the midpoint of a concentration-inhibition curve. For the molecule `FC(F)(F)c1ccc2c(c1)nc(-c1cccnc1)n2C1CC1` [MSD-CYP11B2-Negative-control], the IC50 in [22] was > 10000 nM (not active).
